Measured values published in PubChem BioAssay AID1963971 (Molecular Pharmacology Branch, DTP, NCI, 2024).

Tested on: 953936-095-R-J2-PDC spheroids with HUVEC/MSC, viability
Test: Anticancer human tumor 953936-095-R-J2-PDC patient-derived cervical squamous cell carcinoma cell line growth inhibition [PI3K]
Conditions: for IC50: curve of first compound; for viability, T/C: stronger effect = lower value
Summary of the method: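 Tumor cells grown as multi-cell spheroids with HUVEC endothelial cells and MSC fibroblast-like stroma were treated with targeted agents combined with inavolisib, alpelisib, duvelisib or copanlisib. Doses fell in half-log steps from near clinical Cmax, else from 10 microM. Viability was measured.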

[1] = second compound 0.0316 µM, first compound 0.0316 µM
[2] = second compound 0.0316 µM, first compound 0.1 µM
[3] = second compound 0.1 µM, first compound 0.0316 µM
[4] = second compound 0.1 µM, first compound 0.1 µM
[5] = second compound 0.316 µM, first compound 0.0316 µM
[6] = second compound 0.316 µM, first compound 0.1 µM
[7] = second compound 1 µM, first compound 0.0316 µM
[8] = second compound 1 µM, first compound 0.1 µM
[9] = second compound 3.16 µM, first compound 0.0316 µM
[10] = second compound 3.16 µM, first compound 0.1 µM
[11] = second compound 10 µM, first compound 0.0316 µM
[12] = second compound 10 µM, first compound 0.1 µM
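Also: spheroids exposed to compounds for seven days before read-out.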

For `Cn1ncc(Cl)c1-c1cc(C(=O)NC(CN)Cc2cccc(F)c2)sc1Cl` (centres undefined) + Cc1nc(NC(=O)N2CCCC2C(N)=O)sc1-c1ccnc(C(C)(C)C(F)(F)F)c1, the IC50 (second compound 0.0316 µM) was 378 nM, the IC50 (second compound 0.1 µM) was 392 nM and the IC50 (second compound 0.316 µM) was 165 nM. For the same compound, the IC50 (second compound 1 µM) was under 31.6 nM, the IC50 (second compound 3.16 µM) was under 31.6 nM and the IC50 (second compound 10 µM) was under 31.6 nM. It also gave a viability, T/C [1] of 76.7%, a viability, T/C [2] of 75.7% and a viability, T/C (second compound 0.0316 µM, first compound 0.316 µM) of 50.5%. For the same compound, the viability, T/C (second compound 0.0316 µM, first compound 1 µM) was 32.2%, the viability, T/C (second compound 0.0316 µM, first compound 3.16 µM) was 17.5% and the viability, T/C (second compound 0.0316 µM, first compound 10 µM) was 12.8%. For the same compound, the viability, T/C [3] was 79.4%, the viability, T/C [4] was 77.3% and the viability, T/C (second compound 0.1 µM, first compound 0.316 µM) was 53.2%. For the same compound, the viability, T/C (second compound 0.1 µM, first compound 1 µM) was 28.9%, the viability, T/C (second compound 0.1 µM, first compound 3.16 µM) was 16.6% and the viability, T/C (second compound 0.1 µM, first compound 10 µM) was 9.11%. The viability, T/C [5] was 60.4%, the viability, T/C [6] was 56.8% and the viability, T/C (second compound 0.316 µM, first compound 0.316 µM) was 41.8%. The viability, T/C (second compound 0.316 µM, first compound 1 µM) was 23.9%, the viability, T/C (second compound 0.316 µM, first compound 3.16 µM) was 13.9% and the viability, T/C (second compound 0.316 µM, first compound 10 µM) was 9.97%. It also gave a viability, T/C [7] of 43.5%, a viability, T/C [8] of 40% and a viability, T/C (second compound 1 µM, first compound 0.316 µM) of 32.1%. The viability, T/C (second compound 1 µM, first compound 1 µM) was 19.2%, the viability, T/C (second compound 1 µM, first compound 3.16 µM) was 11.3% and the viability, T/C (second compound 1 µM, first compound 10 µM) was 6.42%. For the same compound, the viability, T/C [9] was 25.1%, the viability, T/C [10] was 24% and the viability, T/C (second compound 3.16 µM, first compound 0.316 µM) was 19.2%. For the same compound, the viability, T/C (second compound 3.16 µM, first compound 1 µM) was 13.6%, the viability, T/C (second compound 3.16 µM, first compound 3.16 µM) was 8.24% and the viability, T/C (second compound 3.16 µM, first compound 10 µM) was 4.61%. The viability, T/C [11] was 11.2%, the viability, T/C [12] was 10.5% and the viability, T/C (second compound 10 µM, first compound 0.316 µM) was 11.5%. The viability, T/C (second compound 10 µM, first compound 1 µM) was 8.02%, the viability, T/C (second compound 10 µM, first compound 3.16 µM) was 4.99% and the viability, T/C (second compound 10 µM, first compound 10 µM) was 1.1%.
`Cn1ncnc1[C@H]1c2n[nH]c(=O)c3cc(F)cc(c23)N[C@@H]1c1ccc(F)cc1` + Cc1nc(NC(=O)N2CCCC2C(N)=O)sc1-c1ccnc(C(C)(C)C(F)(F)F)c1 was tested, and the IC50 (second compound 0.0316 µM) was over 100 nM, the IC50 (second compound 0.1 µM) was over 100 nM and the IC50 (second compound 0.316 µM) was over 100 nM. It also gave an IC50 (second compound 1 µM) of under 0.316 nM, an IC50 (second compound 3.16 µM) of under 0.316 nM and an IC50 (second compound 10 µM) of under 0.316 nM. For the same compound, the viability, T/C (second compound 0.0316 µM, first compound 0.000316 µM) was 91.5%, the viability, T/C (second compound 0.0316 µM, first compound 0.001 µM) was 94.8% and the viability, T/C (second compound 0.0316 µM, first compound 0.00316 µM) was 99.5%. The viability, T/C (second compound 0.0316 µM, first compound 0.01 µM) was 90.9%, the viability, T/C [1] was 94.6% and the viability, T/C [2] was 95.7%. The viability, T/C (second compound 0.1 µM, first compound 0.000316 µM) was 86.6%, the viability, T/C (second compound 0.1 µM, first compound 0.001 µM) was 79.2% and the viability, T/C (second compound 0.1 µM, first compound 0.00316 µM) was 83.7%. The viability, T/C (second compound 0.1 µM, first compound 0.01 µM) was 80.9%, the viability, T/C [3] was 83.3% and the viability, T/C [4] was 81.5%. It also gave a viability, T/C (second compound 0.316 µM, first compound 0.000316 µM) of 63.3%, a viability, T/C (second compound 0.316 µM, first compound 0.001 µM) of 63.9% and a viability, T/C (second compound 0.316 µM, first compound 0.00316 µM) of 62.8%. It also gave a viability, T/C (second compound 0.316 µM, first compound 0.01 µM) of 62.5%, a viability, T/C [5] of 66.6% and a viability, T/C [6] of 58.2%. For the same compound, the viability, T/C (second compound 1 µM, first compound 0.000316 µM) was 45.1%, the viability, T/C (second compound 1 µM, first compound 0.001 µM) was 48.6% and the viability, T/C (second compound 1 µM, first compound 0.00316 µM) was 44.9%. It also gave a viability, T/C (second compound 1 µM, first compound 0.01 µM) of 43.8%, a viability, T/C [7] of 43.2% and a viability, T/C [8] of 39.6%. The viability, T/C (second compound 3.16 µM, first compound 0.000316 µM) was 27%, the viability, T/C (second compound 3.16 µM, first compound 0.001 µM) was 26.2% and the viability, T/C (second compound 3.16 µM, first compound 0.00316 µM) was 26.4%. It also gave a viability, T/C (second compound 3.16 µM, first compound 0.01 µM) of 26.3%, a viability, T/C [9] of 26.5% and a viability, T/C [10] of 25.5%. The viability, T/C (second compound 10 µM, first compound 0.000316 µM) was 11.4%, the viability, T/C (second compound 10 µM, first compound 0.001 µM) was 10.4% and the viability, T/C (second compound 10 µM, first compound 0.00316 µM) was 10.1%. It also gave a viability, T/C (second compound 10 µM, first compound 0.01 µM) of 11.6%, a viability, T/C [11] of 12.5% and a viability, T/C [12] of 10.9%.
